Assay results reported in patent US11466023B2, “Combination of a Mcl-1 inhibitor and a standard of care treatment for hematologic cancers, uses and pharmaceutical compositions thereof” (LES LABORATOIRES SERVIER, priority 2017, dated 2022).
Where two headings read alike, the source gives them in different places.

Assays:
[1] = test system: Kasumi-1 AML cell line; assay: Single agent cell viability (CellTiterGlo); type: cell-based
Experimental: (§1) Cell lines were cultured at 37° C. in a humidified atmosphere containing 5% CO2 and expanded in T-150 flasks. […] In order to analyse the activity of the compounds as single agents, cells were seeded and treated with nine 2-fold serial dilutions of each compound dispensed individually directly into the cell assay plates. […] All the experiments were performed in triplicates. Luminescence was quantified on a multipurpose plate reader. Single agent IC50s were calculated using standard four-parametric curve fitting.

[2] = test system: HL-60 AML cell line; assay: Single agent cell viability (CellTiterGlo); type: cell-based
Experimental: as §1

[3] = test system: Nomo-1 AML cell line; assay: Single agent cell viability (CellTiterGlo); type: cell-based
Experimental: as §1

[4] = test system: THP-1 AML cell line; assay: Single agent cell viability (CellTiterGlo); type: cell-based
Experimental: as §1

[5] = test system: KG1 AML cell line; assay: Single agent cell viability (CellTiterGlo); type: cell-based
Experimental: as §1

[6] = test system: KG1a AML cell line; assay: Single agent cell viability (CellTiterGlo); type: cell-based
Experimental: as §1

[7] = test system: PL-21 AML cell line; assay: Single agent cell viability (CellTiterGlo); type: cell-based
Experimental: as §1

[8] = test system: GDM-1 AML cell line; assay: Single agent cell viability (CellTiterGlo); type: cell-based
Experimental: as §1

[9] = test system: OCI-AML3 AML cell line; assay: Single agent cell viability (CellTiterGlo); type: cell-based
Experimental: as §1

[10] = test system: ML-2 AML cell line; assay: Single agent cell viability (CellTiterGlo); type: cell-based
Experimental: as §1

[11] = test system: EOL-1 AML cell line; assay: Single agent cell viability (CellTiterGlo); type: cell-based
Experimental: as §1

[12] = test system: MV4; 11 AML cell line; assay: Single agent cell viability (CellTiterGlo); type: cell-based
Experimental: as §1

[13] = test system: MOLM-13 AML cell line; assay: Single agent cell viability (CellTiterGlo); type: cell-based
Experimental: as §1

[14] = test system: primary AML samples; settings: a subset of primary AML samples, 100 nM
[15] = test system: normal human CD34+ progenitor cells; settings: 100 nM
[16] = test system: mononuclear cells from AML patient samples; assay: Cell viability assay (Sytox blue flow cytometry) in primary AML samples; type: cell-based, human; settings: combination at 1:1 ratio, read-out: 50% lethal concentration (LC50)
Experimental: Bone marrow samples from patients with AML were collected after informed consent in accordance with guidelines approved by The Alfred Hospital Human research ethics committee.
Mononuclear cells were isolated by density-gradient centrifugation Ficoll-Hypaque (GE Healthcare, Australia) density-gradient centrifugation and red cell lysis was performed using 0.156 M NH4Cl, 0.017 M Tris-HCl pH 7.2 as previously described (Rijal et al., Blood 2015, 125, 2815-2824). Cells were then re-suspended in phosphate-buffered saline containing 2% Fetal Bovine serum (FBS; Sigma, Australia). Mononuclear cells were then suspended in RPMI-1640 (GIBCO, Australia) medium containing penicillin and streptomycin (GIBCO) and heat inactivated fetal bovine serum 15% (Sigma). Cells were washed in phosphate-buffered saline (PBS) containing 2% FBS prior to use.
Freshly purified mononuclear cells from AML patient samples were adjusted to a concentration of 2.5×10^5/mL and 100 μL of cells aliquoted per well into 96 well plates (Sigma). Cells were then treated with idarubicin and Compound 2 over a […] concentration range from 1 nM to 10 μM for 48 hours. For combinations assays, drugs were added at a 1:1 ratio from 1 nM to 10 μM and cells were incubated at 37° C. 5% CO2. Cells were then stained with Sytox blue nucleic acid stain (Invitrogen, Australia) and fluorescence measured by flow cytometric analysis using the LSR-II Fortessa (Becton Dickinson, Australia). FACSDiva software was used for data collection, and FlowJo software for analysis. Blast cells were gated using forward and side scatter properties. Viable cells excluding Sytox blue were determined at 6 concentrations for each drug and the 50% lethal concentration (LC50, in μM) determined.

[17] = Kasumi-1, single agent, 3 days incubation, CellTiterGlo, read-out: IC50
[18] = HL-60, single agent, 3 days incubation, CellTiterGlo, read-out: IC50
[19] = Nomo-1, single agent, 3 days incubation, CellTiterGlo, read-out: IC50
[20] = THP-1, single agent, 3 days incubation, CellTiterGlo, read-out: IC50
[21] = KG1, single agent, 3 days incubation, CellTiterGlo, read-out: IC50
[22] = KG1a, single agent, 3 days incubation, CellTiterGlo, read-out: IC50
[23] = PL-21, single agent, 3 days incubation, CellTiterGlo, read-out: IC50
[24] = GDM-1, single agent, 3 days incubation, CellTiterGlo, read-out: IC50
[25] = OCI-AML3, single agent, 3 days incubation, CellTiterGlo, read-out: IC50
[26] = ML-2, single agent, 3 days incubation, CellTiterGlo, read-out: IC50
[27] = EOL-1, single agent, 3 days incubation, CellTiterGlo, read-out: IC50
[28] = MV4, 11, single agent, 3 days incubation, CellTiterGlo, read-out: IC50
[29] = MOLM-13, single agent, 3 days incubation, CellTiterGlo, read-out: IC50

Work on `COc1ccccc1-c1nccc(COc2ccccc2C[C@@H](Oc2ncnc3sc(-c4ccc(F)cc4)c(-c4ccc(OCCN5CCN(C)CC5)c(Cl)c4C)c23)C(=O)O)n1` [Compound 1, (2R)-2-{[(5Sa)-5-{3-chloro-2-methyl-4-[2-(4-methylpiperazin-1-yl)ethoxy]phenyl}-6-(4-fluorophenyl)thieno[2,3-d]pyrimidin-4-yl]oxy}-3-(2-{[2-(2-methoxyphenyl)pyrimidin-4-yl]methoxy}phenyl)propanoic acid] yielded an IC50 [1, 17] of 0.033 µM, an IC50 [2, 18] of 0.025 µM and an IC50 [3, 19] of 0.013 µM. For the same molecule, the IC50 [4, 20] was 0.017 µM, the IC50 [5, 21] was 0.39 µM and the IC50 [6, 22] was 2 µM. For the same molecule, the IC50 [7, 23] was 0.065 µM, the IC50 [8, 24] was 0.008 µM and the IC50 [9, 25] was 0.146 µM. The IC50 [10, 26] was 0.005 µM, the IC50 [11, 27] was 0.001 µM and the IC50 [12, 28] was 0.001 µM. It also gave an IC50 [13, 29] of 0.002 µM.
For `Cc1c(-c2c(-c3ccc(F)o3)sc3ncnc(O[C@H](Cc4ccccc4OCc4ccnn4CC(F)(F)F)C(=O)O)c23)ccc(OCCN2CCN(C)CC2)c1Cl` [Compound 2, (2R)-2-{[(5Sa)-5-{3-chloro-2-methyl-4-[2-(4-methylpiperazin-1-yl)ethoxy]phenyl}-6-(5-fluorofuran-2-yl)thieno[2,3-d]pyrimidin-4-yl]oxy}-3-(2-{[1-(2,2,2-trifluoroethyl)-1H-pyrazol-5-yl]methoxy}phenyl)propanoic acid], the clonogenic growth [14] was “resistant”, the clonogenic growth [15] was “resistant” and the CC50 ([16]; Patient AML 6200840, 48 hours) was 0.227 µM. The CC50 ([16]; Patient AML AH0131936, 48 hours) was 10.7 µM, the CC50 ([16]; Patient AML AH0465385, 48 hours) was 23 µM and the CC50 ([16]; Patient AML AH0607688, 48 hours) was 22.9 µM. It also gave a CC50 ([16]; Patient AML AH0979006, 48 hours) of 0.0618 µM, a CC50 ([16]; Patient AML AH1081582, 48 hours) of 4.36 µM and a CC50 ([16]; Patient AML AH1228742, 48 hours) of 5360 µM. It also gave a CC50 ([16]; Patient AML AH6120264, 48 hours) of 0.679 µM, a CC50 ([16]; Patient AML AH6181414_2, 48 hours) of 15.5 µM and a CC50 ([16]; Patient AML AH6202849, 48 hours) of 13 µM. It also gave a CC50 ([16]; Patient AML AH6208160, 48 hours) of 21.6 µM, a CC50 ([16]; Patient AML AH6208654, 48 hours) of 9.42 µM and a CC50 ([16]; Patient AML AH6210946, 48 hours) of 0.0556 µM. The CC50 ([16]; Patient AML AH6214498, 48 hours) was 0.000868 µM, the CC50 ([16]; Patient AML AH6217528, 48 hours) was 1.16 µM and the CC50 ([16]; Patient AML AH6219953, 48 hours) was 38.8 µM. The CC50 ([16]; Patient AML AH6220847, 48 hours) was 0.21 µM, the CC50 ([16]; Patient AML AH6223646, 48 hours) was 0.148 µM and the CC50 ([16]; Patient AML AH6224104, 48 hours) was 608 µM. The CC50 ([16]; Patient AML AH6229985, 48 hours) was 0.00483 µM, the CC50 ([16]; Patient AML AH6607085, 48 hours) was 0.143 µM and the CC50 ([16]; Patient AML AH6615742, 48 hours) was 14.5 µM. For the same molecule, the CC50 ([16]; Patient AML AH6627892, 48 hours) was 14.2 µM, the IC50 [1, 17] was 0.066 µM and the IC50 [2, 18] was 0.086 µM. It also gave an IC50 [3, 19] of 0.022 µM, an IC50 [4, 20] of 0.051 µM and an IC50 [5, 21] of 0.413 µM. For the same molecule, the IC50 [6, 22] was 2.2 µM, the IC50 [7, 23] was 0.238 µM and the IC50 [8, 24] was 0.027 µM. The IC50 [9, 25] was 0.34 µM, the IC50 [10, 26] was 0.022 µM and the IC50 [11, 27] was 0.002 µM. The IC50 [12, 28] was 0.001 µM and the IC50 [13, 29] was 0.004 µM.
Molecule `Nc1ncn([C@H]2C[C@H](O)[C@@H](CO)O2)c(=O)n1` [Decitabine, decitabine] has an IC50 ([1]; Homo sapiens, Kasumi 1, 72 h) of 5.5 µM, an IC50 ([2]; Homo sapiens, HL-60, 72 h) of 14 µM and an IC50 ([3]; Homo sapiens, NOMO-1, 72 h) of over 5 µM. It also gave an IC50 ([4]; Homo sapiens, THP-1, 72 h) of over 30 µM, an IC50 ([5]; 72 h) of 5.8 µM and an IC50 ([6]; Homo sapiens, KG-1a, 72 h) of 14 µM. It also gave an IC50 ([7]; PL-21, 72 h) of over 5 µM, an IC50 ([8]; Homo sapiens, GDM-1, 72 h) of 41 µM and an IC50 ([9]; Homo sapiens, OCI-AML-3, 72 h) of 8 µM. It also gave an IC50 ([10]; 72 h) of 14 µM, an IC50 ([11]; Homo sapiens, EOL1, 72 h) of 0.49 µM and an IC50 ([12]; Homo sapiens, MV4-11, 72 h) of 0.4 µM. The IC50 ([13]; Homo sapiens, MOLM-13, 72 h) was 0.4 µM.
